Molecular target: T1, CDK2 (Homo sapiens, UniProt P24941)
T1 construct: endogenous in cells; host or cells: MKN1 cells
Assay: CDK2 degradation in MKN1 cells (AlphaLISA)
Assay type: cell-based
Parameters: key to CDK2 degradation 14 h: Mean external-Abs DC50 (nM): A (<100 nM); B (≥100-500 nM); C (>500-1000 nM); D (>1000 nM); E (not achieved)
Details: 14 h incubation; for DC50: read-out: CDK2 degradation 14 h: Mean external-Abs DC50
Procedure, shortened: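 MKN1 cells (2e4/well) treated 14 h at 37° C with 11-point 1:5 dilutions (0.001 nM-10 μM, 0.1% DMSO). CDK2 in lysates quantified by AlphaLISA, no-cell background subtracted; DC50 from four-parameter logistic fit.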

| CDK2 degradation 14 h: Average Dmax % | DC50 | CDK2 degradation 14 h: Mean external-Abs DC50 (nM) | Structure (SMILES) |
| --- | --- | --- | --- |
| A (A (>75% o)) | < 100 nM | – | Cc1cc(S(=O)(=O)NC2(C)CCN(CC3(F)CCN(c4ccc(C5CCC(=O)NC5=O)cc4)CC3)CC2)ccc1Nc1ncc(C(F)(F)F)c(N2CCC[C@](C)(O)C2)n1 (some centres unmarked) [I-808] |
| A (A (>75% o)) | < 100 nM | – | Cc1cc(S(=O)(=O)N[C@H]2CC[C@H](CN3CCN(c4ccc(C5CCC(=O)NC5=O)cc4F)C[C@@H]3C)CC2)ccc1Nc1ncc(C(F)(F)F)c(N2CCC[C@](C)(O)C2)n1 (some centres unmarked) [I-810] |
| A (A (>75% o)) | < 100 nM | – | Cc1cc(S(=O)(=O)NC2CCC(CN3CCN(c4ccc(C5CCC(=O)NC5=O)cc4C)CC3)CC2)ccc1Nc1ncc(C(F)(F)F)c(N2CCCC(C)(O)C2)n1 (centres unmarked) [I-811] |
| A (A (>75% o)) | < 100 nM | – | Cc1cc(S(=O)(=O)NC2CCC(CN3CCN(c4ccc(C5CCC(=O)NC5=O)c(C)c4F)CC3)CC2)ccc1Nc1ncc(C(F)(F)F)c(N2CCCC(C)(O)C2)n1 (centres unmarked) [I-812] |
| A (A (>75% o)) | < 100 nM | – | Cc1cc(S(=O)(=O)NC2CCC(CN3CCN(c4ccc5c(c4F)n(C)c(=O)n5C4CCC(=O)NC4=O)CC3)CC2)ccc1Nc1ncc(C(F)(F)F)c(N2CCCC(C)(O)C2)n1 (centres unmarked) [I-813] |
| A (A (>75% o)) | < 100 nM | – | Cc1cc(S(=O)(=O)NC2(C)CCC(CN3CCN(c4ccc(C5CCC(=O)NC5=O)cc4F)CC3)CC2)ccc1Nc1ncc(C(F)(F)F)c(N2CCC[C@](C)(O)C2)n1 (some centres unmarked) [I-814] |
| A (A (>75% o)) | < 100 nM | – | Cc1cc(S(=O)(=O)NC2CCC(F)(CN3CCN(c4ccc(C5CCC(=O)NC5=O)cc4F)CC3)CC2)ccc1Nc1ncc(C(F)(F)F)c(N2CCC[C@](C)(O)C2)n1 (some centres unmarked) [I-815] |
| A (A (>75% o)) | < 100 nM | – | COc1cc(N2CCN(CC3CCC(NS(=O)(=O)c4ccc(Nc5ncc(C(F)(F)F)c(N6CCCC(C)(O)C6)n5)c(C)c4)CC3)CC2)c(F)cc1NC1CCC(=O)NC1=O (centres unmarked) [I-816] |
| A (A (>75% o)) | < 100 nM | – | O=C1CCC(c2ccc(N3CCN(C[C@H]4CC[C@H](NS(=O)(=O)c5ccc(Nc6ncc(C(F)(F)F)c(-c7cnn(C8CCOCC8)c7)n6)c(F)c5)CC4)CC3)cc2Cl)C(=O)N1 (some centres unmarked) [I-818] |
| B (B (>50% -75%)) | 500 to 1000 nM | – | Cc1cc(S(=O)(=O)C2CC3(CCN(CC4CCN(c5cccc6c5n(C)c(=O)n6C5CCC(=O)NC5=O)CC4)CC3)C2)ccc1Nc1ncc(C(F)(F)F)c(N2CCCC(C)(O)C2)n1 (centres unmarked) [I-819] |
| A (A (>75% o)) | < 100 nM | – | Cc1cc(S(=O)(=O)NC2CCC(CN3CCN(c4ccc(NC5CCC(=O)NC5=O)cc4F)CC3)CC2)ccc1Nc1ncc(C(F)(F)F)c(N2CCCC(C)(O)C2)n1 (centres unmarked) [I-822] |
| A (A (>75% o)) | < 100 nM | – | Cc1cc(S(=O)(=O)N2CCC(CN(C)C3CCN(c4cccc5c4n(C)c(=O)n5C4CCC(=O)NC4=O)CC3F)CC2)ccc1Nc1ncc2cc(Cl)c(=O)n(C3CCCC3)c2n1 (centres unmarked) [I-823] |
| D (D (<25%)) | – | E | Cc1cc(S(=O)(=O)N2CC3(CCC(CN4CCN(c5ccc6c(c5F)n(C)c(=O)n6C5CCC(=O)NC5=O)CC4)CC3)C2)ccc1Nc1ncc2cc(Cl)c(=O)n(C3CCCC3)c2n1 (centres unmarked) [I-824] |
| D (D (<25%)) | > 1000 nM | – | Cc1cc(S(=O)(=O)C2CC3(CCN(CC4CCN(c5ccc6c(c5F)n(C)c(=O)n6C5CCC(=O)NC5=O)CC4)CC3)C2)ccc1Nc1cc2cnc(Cl)cc2n(C2CCCC2)c1=O (centres unmarked) [I-825] |
| B (B (>50% -75%)) | < 100 nM | – | Cc1cc(S(=O)(=O)C2CC3(CCN(CCN4CCN(c5ccc6c(c5F)n(C)c(=O)n6C5CCC(=O)NC5=O)CC4)CC3)C2)ccc1Nc1ncc2cc(Cl)c(=O)n(C3CCCC3)c2n1 (centres unmarked) [I-826] |
| A (A (>75% o)) | < 100 nM | – | Cc1cc(S(=O)(=O)N[C@H](C)CO[C@H]2CC[C@H](CN3CCN(c4ccc5c(c4F)n(C)c(=O)n5C4CCC(=O)NC4=O)CC3)CC2)ccc1Nc1ncc2ccc(=O)n(C3CCCC3)c2n1 (some centres unmarked) [I-827] |
| A (A (>75% o)) | < 100 nM | – | Cc1cc(S(=O)(=O)N[C@@H](C)CO[C@H]2CC[C@H](CN3CCN(c4ccc5c(c4F)n(C)c(=O)n5C4CCC(=O)NC4=O)CC3)CC2)ccc1Nc1ncc2ccc(=O)n(C3CCCC3)c2n1 (some centres unmarked) [I-828] |
| D (D (<25%)) | – | E | Cc1cc(S(=O)(=O)N2CCC(N3CCC(F)(CN(C)c4ccc5c(c4F)n(C)c(=O)n5C4CCC(=O)NC4=O)CC3)CC2)ccc1Nc1ncc2ccc(=O)n(C3CCCC3)c2n1 (centres unmarked) [I-829] |
| A (A (>75% o)) | < 100 nM | – | Cc1cc(S(=O)(=O)NC2CC(N3CCN(CC4CCN(c5ccc6c(c5F)n(C)c(=O)n6C5CCC(=O)NC5=O)CC4)CC3)C2)ccc1Nc1ncc(C(F)(F)F)c(N2CCCC(C)(O)C2)n1 (centres unmarked) [I-830] |

| CDK2 degradation 14 h: Average Dmax % | DC50 | CDK2 degradation 14 h: Mean external-Abs DC50 (nM) | Structure (SMILES) |
| --- | --- | --- | --- |
| A (A (>75% o)) | < 100 nM | – | Cc1cc(S(=O)(=O)NC2CC(N3CCN(CC4CCN(c5ccc6c(c5F)n(C)c(=O)n6C5CCC(=O)NC5=O)CC4)CC3)C2)ccc1Nc1ncc(C(F)(F)F)c(N2CCCC(C)(O)C2)n1 (centres unmarked) [I-831] |
| A (A (>75% o)) | < 100 nM | – | Cc1cc(S(=O)(=O)NC2CC(N3CCN(CC4CCN(c5ccc6c(c5F)n(C)c(=O)n6C5CCC(=O)NC5=O)CC4)CC3)C2)ccc1Nc1ncc2cc(Cl)c(=O)n(C3CCCC3)c2n1 (centres unmarked) [I-832] |
| A (A (>75% o)) | < 100 nM | – | Cc1cc(S(=O)(=O)NC2CC(N3CCN(CC4CCN(c5cccc6c5n(C)c(=O)n6C5CCC(=O)NC5=O)CC4)CC3)C2)ccc1Nc1ncc(C(F)(F)F)c(N2CCCC(C)(O)C2)n1 (centres unmarked) [I-834] |
| D (D (<25%)) | > 1000 nM | – | Cc1cc(S(=O)(=O)C2CC3(CCN(CC4CCN(c5ccc6c(c5F)n(C)c(=O)n6C5CCC(=O)NC5=O)CC4)CC3)C2)ccc1Nc1nc(N2CCCC(C)(O)C2)c2c(ccn2C)n1 (centres unmarked) [I-835] |
| B (B (>50% -75%)) | 100 to 500 nM | – | Cc1cc(S(=O)(=O)N2CC3(CCN(CC4CCN(c5ccc6c(c5F)n(C)c(=O)n6C5CCC(=O)NC5=O)CC4)CC3(F)F)C2)ccc1Nc1ncc2ccc(=O)n(C3CCCC3)c2n1 (centres unmarked) [I-836] |
| D (D (<25%)) | > 1000 nM | – | Cc1cc(S(=O)(=O)C2CC3(CCN(CC4CCN(c5ccc6c(c5F)n(C)c(=O)n6C5CCC(=O)NC5=O)CC4)CC3)C2)ccc1Nc1ncc2cc(Cl)c(=O)n(C(C)C(C)(C)O)c2n1 (centres unmarked) [I-837] |
| D (D (<25%)) | > 1000 nM | – | Cc1cc(S(=O)(=O)C2CC3(CCN(CC4CCN(c5cccc6c5n(C)c(=O)n6C5CCC(=O)NC5=O)CC4)CC3)C2)ccc1Nc1ncc2cc(Cl)c(=O)n(C(C)C(C)(C)O)c2n1 (centres unmarked) [I-838] |
| D (D (<25%)) | > 1000 nM | – | Cc1cc(S(=O)(=O)C2CC3(CCN(CC4CCN(c5ccc6c(c5F)n(C)c(=O)n6C5CCC(=O)NC5=O)CC4)CC3)C2)ccc1Nc1ncc(C2CC2)c(N2CCCC(C)(O)C2)n1 (centres unmarked) [I-839] |
| B (B (>50% -75%)) | < 100 nM | – | Cc1cc(S(=O)(=O)C2CC3(CCN(CC4CCN(c5ccc6c(c5F)n(C)c(=O)n6C5CCC(=O)NC5=O)CC4)CC3)C2)ccc1Nc1ncc(C(F)(F)F)c(N2CCC(C(C)(C)O)C2)n1 (centres unmarked) [I-840] |
| A (A (>75% o)) | < 100 nM | – | Cc1cc(S(=O)(=O)C2CC3(CCN(CC4CCN(c5cccc6c5n(C)c(=O)n6C5CCC(=O)NC5=O)CC4)CC3)C2)ccc1Nc1ncc(C(F)(F)F)c(N2CCC(C(C)(C)O)C2)n1 (centres unmarked) [I-841] |
| A (A (>75% o)) | < 100 nM | – | Cc1cc(S(=O)(=O)C2CC3(CCN(CC4CCN(c5cccc6c5n(C)c(=O)n6C5CCC(=O)NC5=O)CC4)CC3)C2)ccc1Nc1ncc(C(F)(F)F)c(N2CCC(C(C)(C)O)C2)n1 (centres unmarked) [I-842] |
| D (D (<25%)) | > 1000 nM | – | Cc1cc(S(=O)(=O)NC(C)COC2CCC(CN3CCN(c4ccc5c(c4F)n(C)c(=O)n5C4CCC(=O)NC4=O)CC3)CC2)ccc1Nc1ncc2cc(Cl)c(=O)n(C(C)C(C)(C)O)c2n1 (centres unmarked) [I-843] |
| A (A (>75% o)) | < 100 nM | – | Cc1cc(S(=O)(=O)NC(C)COC2CCC(CN3CCN(c4ccc5c(c4F)n(C)c(=O)n5C4CCC(=O)NC4=O)CC3)CC2)ccc1Nc1ncc(C(F)(F)F)c(N2CCCC(C)(O)C2)n1 (centres unmarked) [I-844] |
| B (B (>50% -75%)) | 100 to 500 nM | – | Cc1cc(S(=O)(=O)NC(C)COC2CCC(CN3CCN(c4ccc5c(c4F)n(C)c(=O)n5C4CCC(=O)NC4=O)CC3)CC2)ccc1Nc1ncc(C(F)(F)F)c(C2CCC(C)(O)CC2)n1 (centres unmarked) [I-845] |
| A (A (>75% o)) | < 100 nM | – | Cc1cc(S(=O)(=O)NC(C)COC2CCC(CN3CCN(c4ccc5c(c4F)n(C)c(=O)n5C4CCC(=O)NC4=O)CC3)CC2)ccc1Nc1ncc(C(F)(F)F)c(N2CCCC(C)(O)C2)n1 (centres unmarked) [I-846] |
| A (A (>75% o)) | < 100 nM | – | Cc1cc(S(=O)(=O)NC2CC(N3CCN(CC4CN(c5cccc6c5n(C)c(=O)n6C5CCC(=O)NC5=O)C4)CC3)C2)ccc1Nc1ncc(C(F)(F)F)c(C2CCC(C)(O)CC2)n1 (centres unmarked) [I-847] |
| A (A (>75% o)) | < 100 nM | – | Cc1cc(S(=O)(=O)NC(C)COC2CCC(CN3CC(c4ccc5c(c4F)n(C)c(=O)n5C4CCC(=O)NC4=O)C3)CC2)ccc1Nc1ncc(C(F)(F)F)c(N2CCCC(C)(O)C2)n1 (centres unmarked) [I-848] |
| B (B (>50% -75%)) | < 100 nM | – | Cc1cc(S(=O)(=O)C2CC3(CCN(CC4CCN(c5ccc6c(c5F)n(C)c(=O)n6C5CCC(=O)NC5=O)CC4)CC3)C2)ccc1Nc1ncc(C(F)(F)F)c(N2CCC(C)C(C)(O)C2)n1 (centres unmarked) [I-849] |

Source: patent US20240173419A1, “CDK2 DEGRADERS AND USES THEREOF” (Kymera Therapeutics, Inc., priority 2022, published 2024)
